Experimental data as given in US10344025B2, “GLS1 inhibitors for treating disease” (Board of Regents, The University of Texas System, priority 2014, dated 2019).

Experiments:
[1] = target: purified recombinant human GAC (GLS1) (Homo sapiens (Human), UniProt O94925); test: GLS1 Enzymatic Activity Assay (dual-coupled enzymatic assay, resorufin/Amplex UltraRed readout); format: biochemical;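 further: glutamate from GAC coupled via glutamate oxidase and peroxidase to resorufin, read as fluorescence (ex 530, em 590 nm) kinetically or at 20 min, four-parameter logistic IC50 fit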
[2] = test system: A549 cells; test: Proliferation Assay (A549 viability, Cell Titer Fluor, 72 hours); format: cell-based; details: Homo sapiens, A549, 72 h
In short: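 Cell Titer Fluor fluorescence after 72 h compound treatment (0.5% DMSO, 37 °C, 5% CO2) of A549 cells plated 24 h earlier at 1000/well. Four-parameter logistic fitting gave IC50.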

purified recombinant human GAC (GLS1), sequence (O94925 other isoform, or with tags, fused parts or gaps): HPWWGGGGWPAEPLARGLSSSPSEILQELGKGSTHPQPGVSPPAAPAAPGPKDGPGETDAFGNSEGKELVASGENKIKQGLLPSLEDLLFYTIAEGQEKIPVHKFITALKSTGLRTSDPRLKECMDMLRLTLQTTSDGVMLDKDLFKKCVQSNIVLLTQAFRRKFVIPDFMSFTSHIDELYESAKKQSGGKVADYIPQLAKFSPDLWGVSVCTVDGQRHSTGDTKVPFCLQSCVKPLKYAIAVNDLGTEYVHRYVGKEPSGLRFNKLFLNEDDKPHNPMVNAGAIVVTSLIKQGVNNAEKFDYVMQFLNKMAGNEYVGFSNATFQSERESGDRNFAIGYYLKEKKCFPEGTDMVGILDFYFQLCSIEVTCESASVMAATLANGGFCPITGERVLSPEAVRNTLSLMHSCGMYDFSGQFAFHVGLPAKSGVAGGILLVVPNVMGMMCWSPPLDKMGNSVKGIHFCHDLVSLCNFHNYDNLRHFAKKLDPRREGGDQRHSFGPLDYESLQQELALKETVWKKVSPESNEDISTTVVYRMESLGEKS

IC50 [1] [µM] | EC50 [2] [µM] | Compound
< 0.1 | 0.1 to 0.5 | Cc1ccc(CNC(=O)c2cn(CC(F)CCc3nnc(C(=O)NCc4cccc(OC(F)(F)F)c4)s3)nn2)cn1 (centres unmarked) [Example 420, 5-[3-fluoro-4-(4-{[(6-methylpyridin-3-yl)methyl]carbamoyl}-1H-1,2,3-triazol-1-yl)butyl]-N-{[3-(trifluoromethoxy)phenyl]methyl}-1,3,4-thiadiazole-2-carboxamide]
< 0.1 | < 0.1 | O=C(NCc1ccc(C(F)(F)F)nc1)c1cn(CCC(F)Cn2cc(C(=O)NCc3cc(OC(F)(F)F)ccc3F)nn2)nn1 (centres unmarked) [Example 421, 1-{2-fluoro-4-[4-({[6-(trifluoromethyl)pyridin-3-yl]methyl}carbamoyl)-1H-1,2,3-triazol-1-yl]butyl}-N-{[2-fluoro-5-(trifluoromethoxy)phenyl]methyl}-1H-1,2,3-triazole-4-carboxamide]
< 0.1 | < 0.1 | O=C(NCc1cccc(C(F)(F)F)n1)c1cn(CCC(F)Cn2cc(C(=O)NCc3cc(OC(F)(F)F)ccc3F)nn2)nn1 (centres unmarked) [Example 422, 1-{2-fluoro-4-[4-({[6-(trifluoromethyl)pyridin-2-yl]methyl}carbamoyl)-1H-1,2,3-triazol-1-yl]butyl}-N-{[-fluoro-5-(trifluoromethoxy)phenyl]methyl}-1H-1,2,3-triazole-4-carboxamide]
< 0.1 | < 0.1 | O=C(NCc1cc(OC(F)(F)F)ccc1F)c1cn(CCC(F)Cn2cc(C(=O)NCc3ccc(C(F)(F)F)cn3)nn2)nn1 (centres unmarked) [Example 423, 1-{2-fluoro-4-[4-({[2-fluoro-5-(trifluoromethoxy)phenyl]methyl}carbamoyl)-1H-1,2,3-triazol-1-yl]butyl}-N-{[5-(trifluoromethyl)pyridin-2-yl]methyl}-1H-1,2,3-triazole-4-carboxamide]
< 0.1 | < 0.1 | O=C(NCc1cc(OC(F)(F)F)ccc1F)c1cn(CCC(F)Cn2cc(C(=O)NCc3ccc(C(F)(F)F)nc3)nn2)nn1 (centres unmarked) [Example 424, 1-{2-fluoro-4-[4-({[2-fluoro-5-(trifluoromethoxy)phenyl]methyl}carbamoyl)-1H-1,2,3-triazol-1-yl]butyl}-N-{[6-(trifluoromethyl)pyridin-3-yl]methyl}-1H-1,2,3-triazole-4-carboxamide]
< 0.1 | < 0.1 | O=C(NCc1cc(OC(F)(F)F)ccc1F)c1cn(CCC(F)Cn2cc(C(=O)NCc3cccc(C(F)(F)F)n3)nn2)nn1 (centres unmarked) [Example 425, 1-{2-fluoro-4-[4-({[2-fluoro-5-(trifluoromethoxy)phenyl]methyl}carbamoyl)-1H-1,2,3-triazol-1-yl]butyl}-N-{[6-(trifluoromethyl)pyridin-2-yl]methyl}-1H-1,2,3-triazole-4-carboxamide]
< 0.1 | < 0.1 | O=C(NCc1cc(OC(F)(F)F)ccc1F)c1cn(CCC(F)Cn2cc(C(=O)NCc3cc(C(F)(F)F)ccn3)nn2)nn1 (centres unmarked) [Example 426, 1-{2-fluoro-4-[4-({[2-fluoro-5-(trifluoromethoxy)phenyl]methyl}carbamoyl)-1H-1,2,3-triazol-1-yl]butyl}-N-{[4-(trifluoromethyl)pyridin-2-yl]methyl}-1H-1,2,3-triazole-4-carboxamide]
< 0.1 | < 0.1 | O=C(NCc1cc(OC(F)(F)F)ccc1F)c1cn(CCC(F)Cn2cc(C(=O)NCc3ncccc3F)nn2)nn1 (centres unmarked) [Example 427, 1-{2-fluoro-4-[4-({[2-fluoro-5-(trifluoromethoxy)phenyl]methyl}carbamoyl)-1H-1,2,3-triazol-1-yl]butyl}-N-[(3-fluoropyridin-2-yl)methyl]-1H-1,2,3-triazole-4-carboxamide]
< 0.1 | < 0.1 | O=C(NCc1cccc(OC(F)(F)F)c1)c1cn(CCC(F)Cn2cc(C(=O)NCc3cc(C(F)(F)F)ccn3)nn2)nn1 (centres unmarked) [Example 428, 1-{2-fluoro-4-[4-({[3-(trifluoromethoxy)phenyl]methyl}carbamoyl)-1H-1,2,3-triazol-1-yl]butyl}-N-{[4-(trifluoromethyl)pyridin-2-yl]methyl}-1H-1,2,3-triazole-4-carboxamide]
< 0.1 | 0.1 to 0.5 | O=C(NCc1cccc(OC(F)(F)F)c1)c1cn(CCC(F)Cn2cc(C(=O)NCc3ncccc3F)nn2)nn1 (centres unmarked) [Example 429, 1-{2-fluoro-4-[4-({[3-(trifluoromethoxy)phenyl]methyl}carbamoyl)-1H-1,2,3-triazol-1-yl]butyl}-N-[(3-fluoropyridin-2-yl)methyl]-1H-1,2,3-triazole-4-carboxamide]
< 0.1 | < 0.1 | Cc1ccc(CNC(=O)c2cn(CC(F)CCn3cc(C(=O)NCc4cccc(OC(F)(F)F)c4)nn3)nn2)cn1 (centres unmarked) [Example 430, 1-{2-fluoro-4-[4-({[3-(trifluoromethoxy)phenyl]methyl}carbamoyl)-1H-1,2,3-triazol-1-yl]butyl}-N-[(6-methylpyridin-3-yl)methyl]-1H-1,2,3-triazole-4-carboxamide]
< 0.1 | < 0.1 | O=C(NCc1cccc(OC(F)(F)F)c1)c1cn(CCC(F)Cn2cc(C(=O)NCc3ccc(C(F)(F)F)cn3)nn2)nn1 (centres unmarked) [Example 431, 1-{2-fluoro-4-[4-({[3-(trifluoromethoxy)phenyl]methyl}carbamoyl)-1H-1,2,3-triazol-1-yl]butyl}-N-{[5-(trifluoromethyl)pyridin-2-yl]methyl}-1H-1,2,3-triazole-4-carboxamide]
< 0.1 | < 0.1 | O=C(NCc1cc(C(F)(F)F)ccn1)c1cn(CCC(F)Cn2cc(C(=O)NCc3cc(OC(F)(F)F)ccc3F)nn2)nn1 (centres unmarked) [Example 432, 1-{2-fluoro-4-[4-({[4-(trifluoromethyl)pyridin-2-yl]methyl}carbamoyl)-1H-1,2,3-triazol-1-yl]butyl}-N-{[-fluoro-5-(trifluoromethoxy)phenyl]methyl}-1H-1,2,3-triazole-4-carboxamide]
< 0.1 | < 0.1 | O=C(NCc1ccc(C(F)(F)F)cn1)c1cn(CCC(F)Cn2cc(C(=O)NCc3cccc(OC(F)(F)F)c3)nn2)nn1 (centres unmarked) [Example 433, 1-{2-fluoro-4-[4-({[5-(trifluoromethyl)pyridin-2-yl]methyl}carbamoyl)-1H-1,2,3-triazol-1-yl]butyl}-N-{[3-(trifluoromethoxy)phenyl]methyl}-1H-1,2,3-triazole-4-carboxamide]
< 0.1 | < 0.1 | Cc1ccc(CNC(=O)c2cn(CCC(F)Cn3cc(C(=O)NCc4cccc(OC(F)(F)F)c4)nn3)nn2)cn1 (centres unmarked) [Example 434, 1-[2-fluoro-4-(4-{[(6-methylpyridin-3-yl)methyl]carbamoyl}-1H-1,2,3-triazol-1-yl)butyl]-N-{[3-(trifluoromethoxy)phenyl]methyl}-1H-1,2,3-triazole-4-carboxamide]
< 0.1 | < 0.1 | O=C(NCc1cccc(OC(F)(F)F)c1)c1cn(CCC(F)Cn2cc(C(=O)NCc3ccc(C(F)(F)F)nc3)nn2)nn1 (centres unmarked) [Example 435, 1-{2-fluoro-4-[4-({[3-(trifluoromethoxy)phenyl]methyl}carbamoyl)-1H-1,2,3-triazol-1-yl]butyl}-N-{[6-(trifluoromethyl)pyridin-3-yl]methyl}-1H-1,2,3-triazole-4-carboxamide]
